# Test results as given in patent EP0497314A1, “Use of azapirones in attention deficit hyperactivity disorder” (Bristol-Myers Squibb Company, priority 1991, dated 1992).
# Structures can show the parent of a compound that is named as a salt. Marks after values point to notes of the source that are not given here.
# Key:
# [1] = tested on: rabbit cortex; assay: Quantitative EEG, rabbit cortex, intravenous administration; assay type: in vivo, rabbits; details: for group percent change in electrical energy from pre-drug control, Δ band / mean change ± S.E. in electrical energy from pre-drug control, Δ band: Δ = 0.5-3.5 Hz; for group percent change in electrical energy from pre-drug control, α band / mean change ± S.E. in electrical energy from pre-drug control, α band: α= 7-13 Hz; for group percent change in electrical energy from pre-drug control, β band / mean change ± S.E. in electrical energy from pre-drug control, β band: β= 13-25 Hz; for group percent change in electrical energy from pre-drug control, γ band / mean change ± S.E. in electrical energy from pre-drug control, γ band: γ= 25-40 Hz; for group percent change in electrical energy from pre-drug control, θ band / mean change ± S.E. in electrical energy from pre-drug control, θ band: θ= 3.5-7.0 Hz
# Method: At least 2 weeks were allowed for recovery before beginning experimentation.
# Groups of four animals each were individually restrained and connected to an EEG amplifier and frequency analyzer. The EEG of each animal was recorded on a separate channel. The instrumentation filtered each channel of EEG analog data into five distinct frequency bands: Δ=0.5-3.5 Hz, ϑ=3.5-7.0 Hz, α=7-13 Hz, β=13-25 Hz and γ=25-40 Hz. The EEG analyzer then integrated the filtered waveforms and sent pulses to an associated computer at a rate proportional to the electrical energy of each band. Thus, one computer print-out provided a cortical EEG profile for the entire group of four rabbits.
# Data from a one-hour recording period were collected in four 15-minute periods, which provided additional information concerning both onset and time of peak effect of drug activity. However, in this report only the mean activity of the four data collection periods was considered since onset of drug activity was immediate and duration of action was at least one hour for all drugs studied. Drug-induced EEG changes were determined by comparing the post-treatment print-out to the pretreatment control in the same animal and statistical analysis was performed on change from control, in counts, using multiple Student-t paired-comparison tests with p≦0.05 (Table 1). However, for clarity data are also presented as percent change from control (Figures 1 and 2).
# All drugs were administered intravenously in saline solution as their respective salts and all dosage calculations were based on the free base. Recording was started immediately after injection and animals were not used more often than once per week. Initial doses were reduced geometrically until a no-effect dose was determined for each drug. However, only the "no-effect" data and the data generated from the next higher dose are presented in this report since the shape of the EEG profile is not dose-related, as opposed to the magnitude of the response which is dose-related.
# [2] = tested on: fronto-occipital cortex of the cat; assay: Quantitative EEG, fronto-occipital cat cortex, subcutaneous administration; assay type: in vivo, cats; details: for group percent change in electrical energy from pre-drug control, Δ band / mean change ± S.E. in electrical energy from pre-drug control, Δ band / group percent change in electrical energy from pre-drug control, α band / mean change ± S.E. in electrical energy from pre-drug control, α band / group percent change in electrical energy from pre-drug control, β band / mean change ± S.E. in electrical energy from pre-drug control, β band / group percent change in electrical energy from pre-drug control, γ band / mean change ± S.E. in electrical energy from pre-drug control, γ band / group percent change in electrical energy from pre-drug control, θ band / mean change ± S.E. in electrical energy from pre-drug control, θ band: fronto-occipital cat cortex; for group percent change in electrical energy from pre-drug control, Δ band / mean change ± S.E. in electrical energy from pre-drug control, Δ band: Δ = 0.5-3.5 Hz; for group percent change in electrical energy from pre-drug control, α band / mean change ± S.E. in electrical energy from pre-drug control, α band: α= 7-13 Hz; for group percent change in electrical energy from pre-drug control, β band / mean change ± S.E. in electrical energy from pre-drug control, β band: β= 13-25 Hz; for group percent change in electrical energy from pre-drug control, γ band / mean change ± S.E. in electrical energy from pre-drug control, γ band: γ= 25-40 Hz; for group percent change in electrical energy from pre-drug control, θ band / mean change ± S.E. in electrical energy from pre-drug control, θ band: θ= 3.5-7.0 Hz
# Excerpt: This unique combination of activity may render buspirone useful in the treatment of childhood hyperkinesis which has been reported to respond to both selected phenothiazine and stimulant drugs. • (b) Adult mongrel female cats weighing 2.5-4.0 kg were implanted with EEG recording electrodes. Recording sites were as follows: fronto-occipital cortex, basal amygdala and ventral hippocampus.
# Animals were individually held in canvas feline restraining bags for EEG recording. The EEG of each brain area was recorded on a separate channel. The instrumentation filtered each channel of EEG and analog data into five distinct frequency bands: Δ=0.5-3.5 Hz, ϑ=3.5-7.0 Hz, α=7-13 Hz, β=13-25 Hz and γ=25-40 Hz. The EEG analyzer then integrated the filtered waveforms and sent pulses to an associated computer at a rate proportional to the electrical energy of each band. Data collecting procedures were essentially the same as reported in Example 1. However, groups of six animals each were used and all drugs were administered subcutaneously in saline solution as their respective salts, but all dosages were calculated as the free base. Recording was started 30 minutes after injection to insure adequate drug absorption for peak activity.
# Drug-induced EEG changes were determined by comparing the post-treatment data to the pre-treatment control in the same animal. Statistical analysis was performed on change from control, in instrument counts, using multiple Student-t-paired-comparison test with P≦0.05 (Table 2). However, for clarity data are also presented as percent change from control (Figures 3, 4 and 5).
# The data in Table 2 are drug-induced changes resulting from the minimum and higher doses of each compound required to elicit the EEG profile characteristic of that particular drug.
# [3] = rabbit cortex, 0.125 mg/kg free base i.v.
# [4] = rabbit cortex, 0.25 mg/kg free base i.v.
structure (smiles),measurement,setting,value
"CSc1ccc2c(c1)N(CCC1CCCCN1C)c1ccccc1S2 (centres unmarked) [Thioridazine HCl, thioridazine]",minimal effective dose,"[1]; Oryctolagus cuniculus, iv, rabbit cortex EEG, dose of free base, read-out: the minimum dose required to produce the EEG profile characteristic of that particular drug",0.25 mg/kg
same,relative potency by comparing minimal doses required to elicit EEG profiles,"[1]; rabbit cortex EEG, i.v.",approximately twice as potent as buspirone
same,the no-effect dose,"[1]; rabbit cortex EEG, dose of free base","0.125† mg/kg, i.v."
same,EEG profile,"[1]; rabbit cortex, i.v.",completely different from that produced by stimulant drugs
same,"group percent change in electrical energy from pre-drug control, Δ band",[1]; [3],+3%
same,"mean change ± S.E. in electrical energy from pre-drug control, Δ band",[1]; [3],+11 ± 23 instrument counts
same,"group percent change in electrical energy from pre-drug control, Δ band",[1]; [4],+69%
same,"mean change ± S.E. in electrical energy from pre-drug control, Δ band",[1]; [4],+143 ± 11 instrument counts
same,"group percent change in electrical energy from pre-drug control, α band",[1]; [3],0%
same,"mean change ± S.E. in electrical energy from pre-drug control, α band",[1]; [3],0 ± 6 instrument counts
same,"group percent change in electrical energy from pre-drug control, α band",[1]; [4],+34%
same,"mean change ± S.E. in electrical energy from pre-drug control, α band",[1]; [4],+54 ± 2 instrument counts
same,"group percent change in electrical energy from pre-drug control, β band",[1]; [3],+3%
same,"mean change ± S.E. in electrical energy from pre-drug control, β band",[1]; [3],+5 ± 4 instrument counts
same,"group percent change in electrical energy from pre-drug control, β band",[1]; [4],+35%
same,"mean change ± S.E. in electrical energy from pre-drug control, β band",[1]; [4],+39 ± 4 instrument counts
same,"group percent change in electrical energy from pre-drug control, γ band",[1]; [3],+1%
same,"mean change ± S.E. in electrical energy from pre-drug control, γ band",[1]; [3],+1 ± 1 instrument counts
same,"group percent change in electrical energy from pre-drug control, γ band",[1]; [4],+5%
same,"mean change ± S.E. in electrical energy from pre-drug control, γ band",[1]; [4],+5 ± 1 instrument counts
same,"group percent change in electrical energy from pre-drug control, θ band",[1]; [3],-5%
same,"mean change ± S.E. in electrical energy from pre-drug control, θ band",[1]; [3],-13 ± 8 instrument counts
same,"group percent change in electrical energy from pre-drug control, θ band",[1]; [4],+21%
same,"mean change ± S.E. in electrical energy from pre-drug control, θ band",[1]; [4],+43 ± 4 instrument counts
same,minimal effective dose,"[2]; Felis catus, sc, fronto-occipital cat cortex EEG, dose of free base, read-out: the minimum dose required to produce the EEG profile characteristic of that particular drug",1 mg/kg
same,the no-effect dose,"[2]; fronto-occipital cat cortex EEG, dose of free base","0.5† mg/kg, s.c."
same,"group percent change in electrical energy from pre-drug control, Δ band",[2]; 0.5 mg/kg free base s.c.,+5%
same,"mean change ± S.E. in electrical energy from pre-drug control, Δ band",[2]; 0.5 mg/kg free base s.c.,+11 ± 21 instrument counts
same,"group percent change in electrical energy from pre-drug control, Δ band",[2]; 1.0 mg/kg free base s.c.,+19%
same,"mean change ± S.E. in electrical energy from pre-drug control, Δ band",[2]; 1.0 mg/kg free base s.c.,+38 ± 11 instrument counts
same,"group percent change in electrical energy from pre-drug control, Δ band",[2]; 8.0 mg/kg free base s.c.,+28%
same,"mean change ± S.E. in electrical energy from pre-drug control, Δ band",[2]; 8.0 mg/kg free base s.c.,+54 ± 8 instrument counts
same,"group percent change in electrical energy from pre-drug control, α band",[2]; 0.5 mg/kg free base s.c.,0%
same,"mean change ± S.E. in electrical energy from pre-drug control, α band",[2]; 0.5 mg/kg free base s.c.,0 ± 7 instrument counts
same,"group percent change in electrical energy from pre-drug control, α band",[2]; 1.0 mg/kg free base s.c.,+18%
same,"mean change ± S.E. in electrical energy from pre-drug control, α band",[2]; 1.0 mg/kg free base s.c.,+20 ± 5 instrument counts
same,"group percent change in electrical energy from pre-drug control, α band",[2]; 8.0 mg/kg free base s.c.,+26%
same,"mean change ± S.E. in electrical energy from pre-drug control, α band",[2]; 8.0 mg/kg free base s.c.,+25 ± 6 instrument counts
same,"group percent change in electrical energy from pre-drug control, β band",[2]; 0.5 mg/kg free base s.c.,-3%
same,"mean change ± S.E. in electrical energy from pre-drug control, β band",[2]; 0.5 mg/kg free base s.c.,-3 ± 3 instrument counts
same,"group percent change in electrical energy from pre-drug control, β band",[2]; 1.0 mg/kg free base s.c.,+3%
same,"mean change ± S.E. in electrical energy from pre-drug control, β band",[2]; 1.0 mg/kg free base s.c.,+3 ± 4 instrument counts
same,"group percent change in electrical energy from pre-drug control, β band",[2]; 8.0 mg/kg free base s.c.,-2%
same,"mean change ± S.E. in electrical energy from pre-drug control, β band",[2]; 8.0 mg/kg free base s.c.,-3 ± 4 instrument counts
same,"group percent change in electrical energy from pre-drug control, γ band",[2]; 0.5 mg/kg free base s.c.,-5%
same,"mean change ± S.E. in electrical energy from pre-drug control, γ band",[2]; 0.5 mg/kg free base s.c.,-3 ± 3 instrument counts
same,"group percent change in electrical energy from pre-drug control, γ band",[2]; 1.0 mg/kg free base s.c.,-11%
same,"mean change ± S.E. in electrical energy from pre-drug control, γ band",[2]; 1.0 mg/kg free base s.c.,-9 ± 4 instrument counts
same,"group percent change in electrical energy from pre-drug control, γ band",[2]; 8.0 mg/kg free base s.c.,-15%
same,"mean change ± S.E. in electrical energy from pre-drug control, γ band",[2]; 8.0 mg/kg free base s.c.,-12 ± 3 instrument counts
same,"group percent change in electrical energy from pre-drug control, θ band",[2]; 0.5 mg/kg free base s.c.,-1%
same,"mean change ± S.E. in electrical energy from pre-drug control, θ band",[2]; 0.5 mg/kg free base s.c.,-2 ± 8 instrument counts
same,"group percent change in electrical energy from pre-drug control, θ band",[2]; 1.0 mg/kg free base s.c.,+24%
same,"mean change ± S.E. in electrical energy from pre-drug control, θ band",[2]; 1.0 mg/kg free base s.c.,+29 ± 5 instrument counts
same,"group percent change in electrical energy from pre-drug control, θ band",[2]; 8.0 mg/kg free base s.c.,+30%
same,"mean change ± S.E. in electrical energy from pre-drug control, θ band",[2]; 8.0 mg/kg free base s.c.,+40 ± 6 instrument counts
